This note sets out measurements from patent publication US11065253B2, “Arylquinazolines” (Merck Patent GmbH, priority 2013, dated 2021).

For one assay, the system named is phospho-serine 2056 DNA-PK in HCT116 cells. Put plainly: DNA-PK phosphorylation at serine 2056 (cellular), ELISA in bleomycin-treated HCT116 cells. The conditions noted are these: Homo sapiens, HCT-116, 6 h, cellular; HCT116 cells, 10 μM bleomycin, six hours; read-out: IC50 pDNA-PK. Format: cell-based. The method in brief:
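Chemiluminescent ELISA quantified DNA-PK Ser2056 phosphorylation relative to total DNA-PKcs in HCT116 cells. Cells received compounds together with 10 μM bleomycin for 6 h; DMSO served as blank.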
What is called IC50 is the point on the concentration scale where inhibition reaches its midpoint. Take `OC(c1ccc(F)c(-c2ncnc3cc(N4CCOCC4)ccc23)c1)c1nccnc1OC1COC1` (stereo not drawn) [Example 32, [4-fluoro-3-(7-morpholin-4-yl-quinazolin-4-yl)phenyl]-[3-(oxetan-3-yloxy)-pyrazin-2-yl]methanol]: the IC50 fell in the range of 5 to 10 µM.
`O[C@H](c1ccc(F)c(-c2ncnc3cc(N4CCOCC4)ccc23)c1)c1nccnc1Cl` [Example 27, (R)-(3-Chloro-pyrazin-2-yl)-[4-fluoro-3-(7-morpholin-4-yl-quinazolin-4-yl)phenyl]-methanol]: the concentration for half-maximal inhibition (IC50) is less than 0.5 µM.
For `NCCn1nc(C(O)c2cc(-c3ncnc4cc(N5CCOCC5)ccc34)c(F)cc2Cl)ccc1=O` (stereo not drawn) [Example 94, 2-(2-Amino-ethyl)-6-{[2-Chloro-4-fluoro-5-(7-morpholin-4-yl-quinazolin-4-yl)phenyl]-hydroxy-methyl}-2H-pyridazin-3-one], the IC50 lay in the range of 10 to 30 µM.
On to `CCn1nc(C(O)c2cc(-c3ncnc4cc(N5CCOCC5)ccc34)c(F)cc2Cl)ccc1=O` (stereo not drawn) [Example 93, 6-{[2-Chloro-4-fluoro-5-(7-morpholin-4-yl-quinazolin-4-yl)phenyl]-hydroxymethyl}-2-ethyl-2H-pyridazin-3-one], for which the 50% inhibitory concentration (IC50) was less than 0.5 µM.
On the same count and under the same terms, for `COc1ccnnc1C(O)c1cc(-c2ncnc3cc(N4CCOCC4)ccc23)c(F)cc1Cl` (stereo not drawn) [Example 3, [2-Chloro-4-fluoro-5-(7-morpholin-4-yl-quinazolin-4-yl)phenyl]-(4-methoxy-pyridazin-3-yl)methanol] the value was 0.5 to 5 µM.
Regarding `COc1cnc(C(O)c2ccc(F)c(-c3ncnc4cc(N5CCOCC5)ccc34)c2)c(Cl)c1` (stereo not drawn) [Example 31, (3-Chloro-5-methoxy-pyridin-2-yl)-[4-fluoro-3-(7-morpholin-4-yl-quinazolin-4-yl)phenyl]-methanol], the IC50 is less than 0.5 µM.
Consider `COC(=O)c1ccc(C(O)c2cc(-c3ncnc4cc(N5CCOCC5)ccc34)c(F)cc2Cl)nn1` (stereo not drawn) [Example 58, 6-{[2-Chloro-4-fluoro-5-(7-morpholin-4-yl-quinazolin-4-yl)phenyl]-hydroxymethyl}-pyridazine-3-carboxylic acid methyl ester], for which the concentration for half-maximal inhibition (IC50) fell in the range of 5 to 10 µM.

The same assay, now with this note: Homo sapiens, HCT-116, cellular DNA-PK phosphorylation at serine 2056, HCT116 cells; read-out: IC50 pDNA-PK.
With `Cn1c(C(O)c2cc(-c3ncnc4cc(N5CCOCC5)ccc34)ccc2Cl)cccc1=O` (stereo not drawn) [Example 400, 6-{[2-Chloro-5-(7-morpholin-4-yl-quinazolin-4-yl)-phenyl]hydroxy-methyl}-1-methyl-1H-pyridin-2-one], the half-maximal inhibitory concentration (IC50) is less than 0.5 µM.
Regarding `Cc1nccnc1C(O)c1cc(-c2ncnc3cc(N4CCOCC4)ccc23)c(F)cc1Cl` (stereo not drawn) [Example 457, [2-Chloro-4-fluoro-5-(7-morpholin-4-yl-quinazolin-4-yl)-phenyl]-(3-methyl-pyrazin-2-yl)-methanol], the IC50 is less than 0.5 µM.
As to `OC(c1ccc(F)c(-c2ncnc3cc(N4CCOCC4)ccc23)c1)c1ncnc2sccc12` (stereo not drawn) [Example 437, [4-Fluoro-3-(7-morpholin-4-yl-quinazolin-4-yl)-phenyl]thieno[2,3-d}-pyrimidin-4-yl-methanol], the IC50 is less than 0.5 µM.
As to `Cn1ncc2c(C(O)c3cc(-c4ncnc5cc(N6CCOCC6)ccc45)c(F)cc3F)ncnc21` (stereo not drawn) [Example 403, [2,4-Difluoro-5-(7-morpholin-4-yl-quinazolin-4-yl)-phenyl]-(1-methyl-1H-pyrazolo[3,4-d}-pyrimidin-4-yl)-methanol], the IC50 fell in the range of 0.5 to 5 µM.

The assay is the same for the next values; noted with them: Homo sapiens, HCT-116, phospho-serine 2056 DNA-PK, bleomycin-treated HCT116 cells; class symbols A-D; read-out: IC50 pDNA-PK.
On to `OC(c1ccc(OCC(F)(F)F)nn1)c1cc(-c2ncnc3cc(N4CCOCC4)ccc23)c(F)cc1Cl` (stereo not drawn) [Example 115, [2-Chloro-4-fluoro-5-(7-morpholin-4-yl-quinazolin-4-yl)-phenyl]-[6-(2,2,2-trifluoro-ethoxy)-pyridazin-3-yl]-methanol], for which the half-inhibitory concentration (IC50) lay within 0.5 to 5 µM.
Take `CC(O)(c1ccc(F)c(-c2ncnc3cc(N4CCOCC4)ccc23)c1)c1nccs1` (stereo not drawn) [Example 163, 1-[4-Fluoro-3-(7-morpholin-4-yl-quinazolin-4-yl)-phenyl]-1-thiazol-2-ylethanol]: the half-maximal inhibitory concentration (IC50) is 10 to 30 µM.
Take `OC(c1cccnc1)c1cc(-c2ncnc3cc(N4CCOCC4)ccc23)c(F)cc1F` (stereo not drawn) [Example 217, [2,4-Difluoro-5-(7-morpholin-4-yl-quinazolin-4-yl)-phenyl]pyridin-3-yl-methanol]: the IC50 was less than 0.5 µM.
On the same count and under the same terms, for `Nc1nccnc1C(O)c1cc(-c2ncnc3cc(N4CCOCC4)ccc23)c(F)cc1Cl` (stereo not drawn) [Example 117, (3-Amino-pyrazin-2-yl)-[2-chloro-4-fluoro-5-(7-morpholin-4-yl-quinazolin-4-yl)-phenyl]methanol] the value was 0.5 to 5 µM.
With `COc1ccc(C(C)(O)c2cc(-c3ncnc4cc(N5CCOCC5)ccc34)c(F)cc2Cl)nn1` (stereo not drawn) [Example 125, 1-[2-Chloro-4-fluoro-5-(7-morpholin-4-yl-quinazolin-4-yl)-phenyl]-1-(6-methoxy-pyridazin-3-yl)-ethanol], the IC50 is 10 to 30 µM.

The assay is the same for the next values; noted with them: Homo sapiens, HCT-116, phospho-serine 2056 DNA-PK, bleomycin-treated HCT116 cells; read-out: IC50 pDNA-PK.
Turning to `[2H]C1([2H])OC([2H])([2H])C([2H])([2H])N(c2ccc3c(-c4cc(C(O)c5nccnc5OC)c(Cl)cc4F)ncnc3c2)C1([2H])[2H]` (stereo not drawn) [Example 241, [2-Chloro-4-fluoro-5-[7-(2,2,3,3,5,5,6,6-octadeuterio-morpholin-4-yl)quinazolin-4-yl]phenyl]-(3-methoxypyrazin-2-yl)methanol], the 50% inhibitory concentration (IC50) was less than 0.5 µM.
Still for that read-out and setting: for `NC(=O)C(c1cccnc1)c1ccc(F)c(-c2ncnc3cc(N4CCOCC4)ccc23)c1` (stereo not drawn) [Example 295, 2-[4-Fluoro-3-(7-morpholin-4-yl-quinazolin-4-yl)-phenyl]-2-pyridin-3-ylacetamide] the value was 10 to 30 µM.
For `NC(=O)C(c1cc(-c2ncnc3cc(N4CCOCC4)ccc23)c(F)cc1Cl)c1ncnn2cccc12` (stereo not drawn) [Example 309, 2-[2-Chloro-4-fluoro-5-(7-morpholin-4-yl-quinazolin-4-yl)-phenyl]-2-[3H-pyrrolo[2,1-f][1,2,4]-triazin-(4E)-ylidene]-acetamide], the IC50 lay within 10 to 30 µM.

The same assay, now with this note: cellular DNA-PK phosphorylation at serine 2056, HCT116 cells; read-out: IC50 pDNA-PK.
Regarding `OC(c1ccc(F)c(-c2ncnc3cc(N4CCOCC4)ccc23)c1)c1ncnc2occc12` (stereo not drawn) [Example 434, [4-Fluoro-3-(7-morpholin-4-yl-quinazolin-4-yl)-phenyl]furo[2,3-d}-pyrimidin-4-yl-methanol], the half-inhibitory concentration (IC50) was less than 0.5 µM.
Still for that read-out and setting: for `OC(c1cc(-c2ncnc3cc(N4CCOCC4)ccc23)c(F)cc1Cl)c1nccn2ccnc12` (stereo not drawn) [Example 397, [2-Chloro-4-fluoro-5-(7-morpholin-4-yl-quinazolin-4-yl)-phenyl]imidazo-[1,2-a]pyrazin-8-yl-methanol] the value was less than 0.5 µM; for `OC(c1cccnn1)c1cc(-c2ncnc3cc(N4CCOCC4)ccc23)ccc1Cl` (stereo not drawn) [Example 479, [2-Chloro-5-(7-morpholin-4-yl-quinazolin-4-yl)-phenyl]pyridazin-3-yl-methanol], less than 0.5 µM.

Staying with this assay, now noted: cellular; HCT116 cells, 10 μM bleomycin, six hours; read-out: IC50 pDNA-PK.
As for `OC(c1ccc(F)c(-c2ncnc3cc(N4CCOCC4)sc23)c1)c1nccnc1Cl` (stereo not drawn) [Example 37, (3-Chloropyrazin-2-yl)-[4-fluoro-3-(6-morpholin-4-ylthieno[3,2-d}pyrimidin-4-yl)phenyl]-methanol], the IC50 was less than 0.5 µM.

Staying with this assay, now noted: phospho-serine 2056 DNA-PK, bleomycin-treated HCT116 cells; class symbols A-D; read-out: IC50 pDNA-PK.
In the case of `COc1ccc(C(O)c2cc(-c3ncnc4cc(N5CCOCC5)sc34)c(F)cc2Cl)nn1` (single isomer, unassigned) [Example 126, [2-Chloro-4-fluoro-5-(6-morpholin-4-ylthieno[3,2-d}-pyrimidin-4-yl)-phenyl]-(6-methoxy-pyridazin-3-yl)-methanol], the IC50 was less than 0.5 µM.
